pIC50: −log10 of the molar value.
Columns and labels:
rat sEH = target: T1, rat sEH (Rattus norvegicus, UniProt P80299); test: rat sEH inhibition; type: biochemical
T1 sequence (P80299 1-554): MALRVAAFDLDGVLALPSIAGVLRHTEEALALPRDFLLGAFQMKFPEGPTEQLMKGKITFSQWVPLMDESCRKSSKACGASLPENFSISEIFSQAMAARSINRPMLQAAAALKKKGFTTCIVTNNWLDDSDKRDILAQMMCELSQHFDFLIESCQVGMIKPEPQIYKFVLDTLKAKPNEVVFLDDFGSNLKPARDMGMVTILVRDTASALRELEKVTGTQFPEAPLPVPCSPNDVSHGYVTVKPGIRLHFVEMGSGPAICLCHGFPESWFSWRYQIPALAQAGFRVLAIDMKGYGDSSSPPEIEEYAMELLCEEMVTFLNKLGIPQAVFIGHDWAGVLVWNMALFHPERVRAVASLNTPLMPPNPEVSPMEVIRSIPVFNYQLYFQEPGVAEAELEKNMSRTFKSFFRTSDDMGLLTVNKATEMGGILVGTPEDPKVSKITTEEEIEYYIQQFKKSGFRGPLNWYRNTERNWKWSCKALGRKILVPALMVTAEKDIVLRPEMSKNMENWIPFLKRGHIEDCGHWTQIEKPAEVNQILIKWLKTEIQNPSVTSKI

sEH [1] = test: inhibition of sEH; type: biochemical; details: relative to parent compound
Description: (§1) Any of a number of standard assays for determining epoxide hydrolase activity can be used to determine inhibition of sEHI. […] Suitable in vitro assays are described in Zeldin et al. J. Biol. Chem. 268:6402-6407 (1993). Suitable in vivo assays are described in Zeldin et al., Arch Biochem Biophys 330:87-96 (1996).
(§2) The enzyme also can be detected based on the binding of specific ligands to the catalytic site which either immobilize the enzyme or label it with a probe such as dansyl, fluoracein, luciferase, green fluorescent protein or other reagent. The enzyme can be assayed by its hydration of EETs, its hydrolysis of an epoxide to give a colored product as described by Dietze et al., 1994, supra, or its hydrolysis of a radioactive surrogate substrate (Borhan et al., 1995, supra). The enzyme also can be detected based on the generation of fluorescent products following the hydrolysis of the epoxide. Numerous methods of epoxide hydrolase detection have been described (see, e.g., Wixtrom, supra).
(§3) The assays are normally carried out with a recombinant enzyme following affinity purification. They can be carried out in crude tissue homogenates, cell culture or even in vivo, as known in the art and described in the references cited above.

[2] = test system: streptozocin induced neuropathic pain; test: von Frey test (mechanical allodynia) in streptozocin neuropathic rats; type: in vivo, rat; details: neuropathic pain model
Description: Male Sprague-Dawley rats weighing 250-300 grains were used. Animals were individually housed at UC Davis Animal Resource Facility under standard conditions with free access to food and water, and maintained for at least 1 week before the experiments. Pain was quantified using three tests, the hind paw withdrawal latency test, the mechanical hyperalgesia test and the mechanical allodynia test. All the experiments were performed during the daytime.
Rats were first trained to the experimental chamber in two separate sessions. On the day of the induction of neuropathy, the animals' basal response to all three tests were measured and then streptozocin (50 mg/kg) was administered intravenously. Animals were then followed over time for the development of neuropathic pain. An inhibitor of sEH was administered subcutaneously one week after the onset of pain symptoms. […] Compounds were formulated by dissolving them in ethanol and mixing with trans free oleic oil. At least six animals per group were used. The Von Frey test was conducted by stimulating the plantar surface of the rats' hind paw with a calibrated filament connected to a force transducer. As this filament is applied the amount of force exerted on the paw increases and the animal withdraws its paw when the force reaches its threshold. […] In the Randal-Selitto test a similar principle is used. The animals' hind paw is placed between a flat surface and a pointed tip of a force transducer. The pointed tip exerts force on the dorsal face of the paw. […] The two tests are complementary, but depend on the activity of different groups of nociceptors.
Treatments and behavioral nociceptive tests. […] Following baseline measurements, rats were first treated with 200 μl of vehicle or compound-formulated cream by topical application to one hindpaw, LPS ([…] in 50 μl 0.9% NaCl) was injected into the plantar surface of the treated paw. For subcutaneous administration, compounds were injected immediately after intraplantar LPS. […] A probe fitted with a filament that is connected to a force transducer was applied to the plantar hind paw surface through a wire-mesh platform until eliciting a withdrawal reflex. The duration of heat application or the force (gr) necessary to elicit a withdrawal was designated as TWL and MWT. The steroidogenesis inhibitors were applied 2 hours before sEHI and LPS administration. Diabetes was induced by intravenous injection of 50 mg/kg streptozocin (STZ) in saline following baseline measurements. Diabetic animals were tested at least one week after STZ administration. Three measurements were taken from each animal at each time point and average responses were converted to percent analgesia index based on each animals' baseline response.

[3] = test system: streptozocin induced neuropathic pain; test: mechanical hyperalgesia test (Randal-Selitto) in streptozocin neuropathic rats; type: in vivo, rat
Description: Male Sprague-Dawley rats weighing 250-300 grains were used. Animals were individually housed at UC Davis Animal Resource Facility under standard conditions with free access to food and water, and maintained for at least 1 week before the experiments. Pain was quantified using three tests, the hind paw withdrawal latency test, the mechanical hyperalgesia test and the mechanical allodynia test. All the experiments were performed during the daytime. Rats were first trained to the experimental chamber in two separate sessions. On the day of the induction of neuropathy, the animals' basal response to all three tests were measured and then streptozocin (50 mg/kg) was administered intravenously. Animals were then followed over time for the development of neuropathic pain. An inhibitor of sEH was administered subcutaneously one week after the onset of pain symptoms. […] Pain response was measured at 60, 120, 240 and 480 minutes after the administration of the sEHI. Compounds were formulated by dissolving them in ethanol and mixing with trans free oleic oil. At least six animals per group were used. The Von Frey test was conducted by stimulating the plantar surface of the rats' hind paw with a calibrated filament connected to a force transducer. As this filament is applied the amount of force exerted on the paw increases and the animal withdraws its paw when the force reaches its threshold. […] In the Randal-Selitto test a similar principle is used. The animals' hind paw is placed between a flat surface and a pointed tip of a force transducer. The pointed tip exerts force on the dorsal face of the paw. […] The two tests are complementary, but depend on the activity of different groups of nociceptors.

sEH [4] = target: T2, sEH (Homo sapiens, UniProt P34913); test: inhibition of sEH; type: biochemical
T2 sequence (P34913 1-555): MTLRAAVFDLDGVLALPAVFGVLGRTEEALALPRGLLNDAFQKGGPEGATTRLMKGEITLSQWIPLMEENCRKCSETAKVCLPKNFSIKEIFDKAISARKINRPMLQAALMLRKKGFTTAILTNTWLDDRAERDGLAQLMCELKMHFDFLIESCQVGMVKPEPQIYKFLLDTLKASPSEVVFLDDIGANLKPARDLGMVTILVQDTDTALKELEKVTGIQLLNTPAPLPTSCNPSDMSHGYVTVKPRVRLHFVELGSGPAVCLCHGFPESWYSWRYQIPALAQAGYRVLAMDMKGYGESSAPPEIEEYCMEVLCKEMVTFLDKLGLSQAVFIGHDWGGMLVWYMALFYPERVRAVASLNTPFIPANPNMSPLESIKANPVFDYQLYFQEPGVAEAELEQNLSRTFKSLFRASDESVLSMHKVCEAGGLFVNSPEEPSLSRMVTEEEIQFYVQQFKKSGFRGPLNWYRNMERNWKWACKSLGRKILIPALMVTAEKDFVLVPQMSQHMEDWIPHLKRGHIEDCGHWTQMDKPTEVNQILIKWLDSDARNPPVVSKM
Description: as §1, §2, §3

metabolism and stability = details: in vivo

With CCOCCOCCOCCCCCNC(=O)NC12CC3CC(CC(O)(C3)C1)C2 [compound 1010, reference compound] as the compound, how does the pIC50 (rat sEH) read?
Its pIC50 is 5.93.

And the “fold less active in inhibiting sEH than parent compound” value (sEH [1])?
Its value is 250 fold.

And the “pain scores of diabetic rats” value [2]?
The value was “not”.

And the “pain, mechanical hyperalgesia test (FIG. 3)” value ([3]; 25 mg/kg)?
The value was “showed no effectiveness”.

What about the “mechanical allodynia induced by diabetic neuropathy (FIG. 3 legend)” value ([3]; compound 1010 at equivalent dose) of the same compound?
Its value is “shows no effectiveness in reducing nociception”.

Which “activity as inhibitor of sEH” value (sEH [4]) does the source give for CCCCCCCCCCCCNC(=O)NC12CC3CC(CC(C3)C1)C2 [ADU, N-Adamantyl-N-dodecyl urea] here?
Its value is “particularly high activity on sEH”.

And the metabolic stability (metabolism and stability)?
Its metabolic stability is “metabolically stable”.

Reference: patent publication US8399425B2, “Alleviating neuropathic pain with EETs and sEH inhibitors” (The Regents of the University of California, priority 2007, dated 2013)
